Reference: ChEMBL document CHEMBL3102729, “Synthesis, hypoglycemic activity and molecular modeling studies of pyrazole-3-carbohydrazides designed by a CoMFA model” (2013)

What was measured:
Rattus norvegicus [1] = test: Hypoglycemic activity in STZ-nicotinamide Wistar rat model of diabetes at 50 mg/kg administered intragastrically as single dose measured after 7 hrs relative to control; format: functional; details: route intragastric
Rattus norvegicus [2] = test: Hypoglycemic activity in STZ-nicotinamide Wistar rat model of diabetes at 50 mg/kg administered intragastrically as single dose; format: functional, organism-based; design: dose 50 mg/kg; details: TDE = time-dependent effect

Structure (SMILES): Cc1c(C(=O)NN2CCCCC2)nn(-c2ccc(F)c(Cl)c2)c1-c1ccc(Cl)cc1
- Activity (Rattus norvegicus [1]): 33.6%

Structure (SMILES): Cc1c(C(=O)NN2CCCCC2)nn(-c2ccc(Cl)cc2Cl)c1-c1ccccc1
- Activity (Rattus norvegicus [1]): 1.08%

Structure (SMILES): Cc1c(C(=O)NN2CCCCC2)nn(-c2ccccc2)c1-c1ccccc1
- Activity (Rattus norvegicus [1]): 37.2%

Structure (SMILES): Cc1c(C(=O)NN2CCCCC2)nn(-c2ccc(C(F)(F)F)cc2)c1-c1ccc(Cl)cc1
- Activity (Rattus norvegicus [1]): 27.3%

Structure (SMILES): Cc1c(C(=O)NN2CCCCC2)nn(-c2ccc(F)c(Cl)c2)c1-c1ccc(F)cc1
- Activity (Rattus norvegicus [2]): tde
- Activity (Rattus norvegicus [1]): 58.7%

Structure (SMILES): Cc1c(C(=O)NN2CCCCC2)nn(-c2ccnc3cc(Cl)ccc23)c1-c1ccc(Cl)cc1
- Activity (Rattus norvegicus [1]): 34.2%

Structure (SMILES): Cc1c(C(=O)NN2CCCCC2)nn(-c2ccc(Cl)c(Cl)c2)c1-c1ccc(Cl)cc1
- Activity (Rattus norvegicus [2]): tde
- Activity (Rattus norvegicus [1]): 54.7%

Structure (SMILES): Cc1c(C(=O)NN2CCCCC2)nn(-c2ccc(C(F)(F)F)cc2)c1-c1ccc(Br)cc1
- Activity (Rattus norvegicus [1]): -2.4%

Structure (SMILES): Cc1c(C(=O)NN2CCCCC2)nn(-c2ccc(Cl)cc2Cl)c1-c1ccc(C(F)(F)F)cc1
- Activity (Rattus norvegicus [1]): 43.9%

Structure (SMILES): Cc1c(C(=O)NN2CCCCC2)nn(-c2ccnc3cc(Cl)ccc23)c1-c1ccc(F)cc1
- Activity (Rattus norvegicus [1]): 22.4%

Structure (SMILES): Cc1c(C(=O)NN2CCCCC2)nn(-c2ccc(F)cc2F)c1-c1ccc(C(F)(F)F)cc1
- Activity (Rattus norvegicus [1]): 54.2%

Structure (SMILES): Cc1c(C(=O)NN2CCCCC2)nn(-c2ccc(F)cc2F)c1-c1ccc(F)cc1
- Activity (Rattus norvegicus [2]): tde
- Activity (Rattus norvegicus [1]): 49.4%

Structure (SMILES): Cc1c(C(=O)NN2CCCCC2)nn(-c2ccc(Cl)cc2Cl)c1-c1ccc(Cl)cc1 [RIMONABANT]
- Activity (Rattus norvegicus [1]): 25.4%

Structure (SMILES): COc1ccc(Cl)cc1C(=O)NCCc1ccc(S(=O)(=O)NC(=O)NC2CCCCC2)cc1 [GLYBURIDE]
- Activity (Rattus norvegicus [1]): 38%
